IC50 data for four molecules are collected here from patent US11091495B2, “Substituted imidazo[1,2-c]pyrimidines as PRC2 inhibitors” (Mirati Therapeutics, Inc., priority 2018, dated 2021).

Experiment [1] concerns Karpas 422 cells (EZH2 Y641N). In words: Karpas 422 cell viability (Cell Titre Glo). Format: cell-based, human. To be noted: Day 4, Day 7 or Day 11 (time point not given), read-out: IC50 (nM), Inhibiting Proliferation of Cells Expressing an Activating Mutant Form of EZH2. The procedure: Karpas 422 cell line is a human B cell non-Hodgkin's lymphoma cell line established from a patient having DLBCL. This EZH2 heterozygotic cell line expresses a mutant form of EZH2 enzyme (Y641N) that increases histone H3 methylation and this mutation has been implicated in the tumorgenesis of lymphomas, such as DLBCL.
Karpas 422 cells (PHE cat no.,06101702) were cultured in RPMI medium supplemented with 20% fetal bovine serum and 1% penicillin/1% streptomycin and plated at a density of 1000 cells/90 μl/well in 96 well white assay plates. A dose response curve for compounds of the present invention was determined by adding a 10 μl aliquot of stock solutions of varying concentrations of compounds to the same medium in each well, over a concentration range of 10 μM using 3-fold dilutions to a final concentration of 1.5 nM. The plates were incubated at 37° C. for predetermined time periods, Day 4, Day 7, or Day 11, and the viability of the cells was measured using a CTG assay kit (Cell Titre Glo; Promega cat. no G7573) on Day 4 and Day 7 in accordance with the manufacturer's instructions.
For the viability assay for the Day 11 plates, the plates were subjected to centrifugation at 1100 rpm for five minutes on Day 7 and the supernatant was removed by aspiration. The cells were resuspended in 90 μl aliquot of the appropriate growth medium lacking the compound followed by addition of 10 μl of a 10× stock of the same compound at the same concentration. The viability of the Day 11 cells was measured using the CTG assay kit described above in accordance with the manufacturer's instructions. The IC50 values for each compound at each predetermined time point were calculated using Graph pad PRISM software and the results are shown in Table 15. A=≤250 nM; B=<250 nM-≤500 nM; and C=>500 nM.

The subject of experiment [2] is PRC2-mediated histone H3 Lys27 trimethylation in Pfeiffer cells (EZH2 A677G). The experiment can be described thus: Tri-Methyl Histone H3 (Lys 27) sandwich ELISA in Pfeiffer cells. Type of experiment: cell-based, human. The following applies: 96 hours incubation, read-out: IC50 (nM), Inhibition of EZH2-mediated Histone H3 Trimethylation. From the text: The Pfeiffer cell line was established from a […] from a patient having metastatic diffuse large B-cell lymphoma (DLBCL). This cell line expresses a mutant form of the EZH2 enzyme (A677G) that results in enhanced EZH2 activity leading to increased methylation of histone H3 Lys27. Increased trimethylation of histone H3 Lys27 is believed to be implicated in tumorgenesis and poor clinical prognosis in lymphomas (McCabe et al., (2012) Nature 492:108-112).
Inhibition of PRC2-mediated histone H3 methylation by compounds of Formula (I) was measured by ELISA using a Tri-Methyl Histone H3 (Lys 27) Sandwich ELISA Kit (Cell Signaling Tech #7866C) in accordance with the manufacturer's instructions. Briefly, Pfeiffer cells were cultured in RPMI medium supplemented with 10% fetal bovine serum and 1% penicillin and 1% streptomycin in 96 well culture plates at 37° C. to a density of 8000 cells/90 μl/well and the cells were harvested. A series of 3-fold serial dilutions of each test compound of Formula (I) were prepared in RPMI medium and added to the cells at final concentrations ranging from 1 μM to 0.15 nM. The plates were incubated at 37° C. for 96 hours.
After incubation, the cells were pelleted by centrifugation in a pre-cooled 4° C. rotor at 1,100 rpm for 10 min and the supernatant was removed by aspiration. The cell pellet was resuspended in 55 μl of Lysis Buffer (0.4M HCl) and incubated on ice with periodic shaking for 30 minutes. The lysed cells were subjected to centrifugation at 4,200 rpm for 10 min at 4° C. and the supernatant containing acid-soluble proteins was collected and the remainder discarded. The acid-soluble proteins were brought to a neutral pH by the addition of 20 μl of Neutralization Buffer (1 M Sodium phosphate, dibasic (pH 12.5), 2.5 mM DTT and 1 mM PMSF) and the neutralized lysates were analyzed by ELISA.
A 65 μl aliquot of each cell lysate was added to a well of a microwell strip, the microwells were sealed using tape and incubated either at 37° C. for two hours or at 4° C. overnight. After incubation, the tape was removed at the microwells were washed four times using 200 μl of 1× Wash Buffer. To each washed microwell, a 100 μl aliquot of an anti-trimethyl histone H3 Lys27 Detection Antibody solution was added and the microwells were incubated at 37° C. for one hour. […]
A 100 μl aliquot of an HRP-linked secondary antibody was added to each well, the wells were sealed with tape and incubated at 37° C. for 30 min. […] The degree of histone H3 trimethylation was determined using a spectrophotometric readout by measuring the absorbance at 450 nm and then calculating the amount of trimethylated histone H3. A=≤100 nM; B=>100 nM-≤500 nM; C=>500 nM and N.D.=not determined.
Background: ELISA stands for enzyme-linked immunosorbent assay.

The target in experiment [3] is purified human, His-tagged PRC2 complex (Homo sapiens (Human), UniProt O75530). In words: Hot Spot HMT assay of PRC2 enzymatic activity. To be noted: 10 nM PRC2 complex, core histone H3, 1 uM 3H-SAM, 1 hr at 30° C; read-out: IC50, Inhibition of PRC2-mediated Enzymatic Activity. Format: biochemical.
Source text: The assay uses purified human, His-tagged PRC2 complex, including N-terminal His-tagged EZH2 enzyme, N-terminal Flag-tagged embryonic ectoderm development protein (EED), N-terminal His-tagged suppressor of zeste 12 (SUZ12), N-terminal His-tagged AEBP2, and N-terminal His-tagged RbAp48. In this assay, the transfer of the tritiated methyl group from radiolabeled S-adenosyl methionine (SAM) to purified core histone protein by EZH2 is quantitated after filtration to determine the activity of the core PRC2 complex in the presence and absence of compound.
The initial starting concentration for the serial dilutions of each compound was 1.0 μM. […] SAH (S-(5-adenosyl)-L-homocysteine) was used as a positive control for assay validation.
An aliquot of each serial dilution of test compound was added to deep 384 well plate using Acoustic Technology instrument (Echo 550, LabCyte) containing reaction buffer (50 mM Tris-HCl (pH 8.)), 0.01% Brij35, 1 mM EDTA, 1 mM DTT, 1 mM PMSF and 1% DMSO), 10 nM purified PRC2 complex and 0.05 mg/ml core histone H3 in a 5 μl volume. The reaction was mixed gently and then pre-incubated for 20 min at 30° C. […] After 1 hr, the reaction product was detected using a filter binding method and the amount of tritiated H3 core histone was quantitated using a scintillation counter.

Read-outs that look alike come from different tables or passages of the source.

Sequence of purified human, His-tagged PRC2 complex (Q15910 whole entry): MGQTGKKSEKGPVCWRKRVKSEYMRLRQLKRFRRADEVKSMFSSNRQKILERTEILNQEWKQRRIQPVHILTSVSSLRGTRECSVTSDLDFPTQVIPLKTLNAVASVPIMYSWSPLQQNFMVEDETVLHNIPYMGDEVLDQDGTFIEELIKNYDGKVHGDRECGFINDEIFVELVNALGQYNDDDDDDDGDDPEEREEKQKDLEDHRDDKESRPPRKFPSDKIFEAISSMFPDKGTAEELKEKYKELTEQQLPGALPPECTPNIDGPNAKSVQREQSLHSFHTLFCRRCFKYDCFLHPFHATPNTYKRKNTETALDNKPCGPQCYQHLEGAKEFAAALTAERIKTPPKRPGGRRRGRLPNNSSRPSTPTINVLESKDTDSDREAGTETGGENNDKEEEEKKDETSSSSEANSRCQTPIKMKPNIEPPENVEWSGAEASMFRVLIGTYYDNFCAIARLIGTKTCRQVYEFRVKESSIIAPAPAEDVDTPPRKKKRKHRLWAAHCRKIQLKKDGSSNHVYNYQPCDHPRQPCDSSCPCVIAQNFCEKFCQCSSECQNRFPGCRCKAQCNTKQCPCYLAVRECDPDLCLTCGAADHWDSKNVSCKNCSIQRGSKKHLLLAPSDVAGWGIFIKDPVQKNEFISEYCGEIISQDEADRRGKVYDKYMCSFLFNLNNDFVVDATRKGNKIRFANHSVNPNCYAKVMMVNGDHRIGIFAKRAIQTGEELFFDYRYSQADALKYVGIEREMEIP
Sequence of purified human, His-tagged PRC2 complex (O75530 whole entry): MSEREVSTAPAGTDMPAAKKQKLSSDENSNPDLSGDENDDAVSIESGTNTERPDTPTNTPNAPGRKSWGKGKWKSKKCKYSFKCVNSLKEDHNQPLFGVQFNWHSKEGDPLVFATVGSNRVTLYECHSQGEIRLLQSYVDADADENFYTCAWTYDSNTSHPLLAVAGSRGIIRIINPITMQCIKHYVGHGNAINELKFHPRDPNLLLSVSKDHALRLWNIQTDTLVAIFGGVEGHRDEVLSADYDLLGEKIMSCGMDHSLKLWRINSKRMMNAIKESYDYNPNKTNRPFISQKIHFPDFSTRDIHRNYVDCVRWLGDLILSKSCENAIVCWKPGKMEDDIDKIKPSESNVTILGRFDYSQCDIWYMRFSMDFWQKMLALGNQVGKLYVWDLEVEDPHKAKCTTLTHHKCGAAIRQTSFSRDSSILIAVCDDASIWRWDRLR
Sequence of purified human, His-tagged PRC2 complex (Q15022 whole entry partner): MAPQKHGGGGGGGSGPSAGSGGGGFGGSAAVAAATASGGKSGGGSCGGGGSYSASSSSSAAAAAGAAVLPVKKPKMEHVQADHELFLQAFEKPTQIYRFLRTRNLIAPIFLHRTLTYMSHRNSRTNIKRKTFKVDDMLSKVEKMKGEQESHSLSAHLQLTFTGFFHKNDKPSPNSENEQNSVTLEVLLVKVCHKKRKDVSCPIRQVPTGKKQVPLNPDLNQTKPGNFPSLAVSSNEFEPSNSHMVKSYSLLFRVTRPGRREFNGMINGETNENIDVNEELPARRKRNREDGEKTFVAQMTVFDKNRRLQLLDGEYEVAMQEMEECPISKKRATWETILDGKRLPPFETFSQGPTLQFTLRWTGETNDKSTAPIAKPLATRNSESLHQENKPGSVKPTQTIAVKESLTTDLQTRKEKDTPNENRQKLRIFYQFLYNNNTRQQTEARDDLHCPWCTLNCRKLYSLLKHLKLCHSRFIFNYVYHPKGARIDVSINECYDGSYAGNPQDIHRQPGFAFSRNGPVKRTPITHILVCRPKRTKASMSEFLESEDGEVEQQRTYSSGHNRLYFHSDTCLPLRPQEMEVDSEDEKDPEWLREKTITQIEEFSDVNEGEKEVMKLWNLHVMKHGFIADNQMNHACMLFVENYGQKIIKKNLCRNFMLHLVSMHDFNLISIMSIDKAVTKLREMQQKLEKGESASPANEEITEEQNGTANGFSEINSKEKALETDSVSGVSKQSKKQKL
Sequence of purified human, His-tagged PRC2 complex (Q6ZN18 whole entry partner): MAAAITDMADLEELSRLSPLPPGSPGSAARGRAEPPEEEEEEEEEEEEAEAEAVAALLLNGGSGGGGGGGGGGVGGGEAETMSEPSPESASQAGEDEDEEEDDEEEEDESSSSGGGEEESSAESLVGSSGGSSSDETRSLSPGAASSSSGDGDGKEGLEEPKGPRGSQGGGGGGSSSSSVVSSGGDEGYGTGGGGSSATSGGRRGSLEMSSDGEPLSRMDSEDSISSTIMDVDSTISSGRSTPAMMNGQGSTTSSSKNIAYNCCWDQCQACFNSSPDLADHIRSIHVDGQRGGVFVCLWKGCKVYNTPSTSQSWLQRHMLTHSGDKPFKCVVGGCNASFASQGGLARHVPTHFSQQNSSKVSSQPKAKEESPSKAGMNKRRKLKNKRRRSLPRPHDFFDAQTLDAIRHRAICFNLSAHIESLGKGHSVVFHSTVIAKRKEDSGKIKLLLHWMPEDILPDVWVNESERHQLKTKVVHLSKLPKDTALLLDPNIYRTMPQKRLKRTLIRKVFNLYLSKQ
Sequence of purified human, His-tagged PRC2 complex (Q09028 whole entry partner): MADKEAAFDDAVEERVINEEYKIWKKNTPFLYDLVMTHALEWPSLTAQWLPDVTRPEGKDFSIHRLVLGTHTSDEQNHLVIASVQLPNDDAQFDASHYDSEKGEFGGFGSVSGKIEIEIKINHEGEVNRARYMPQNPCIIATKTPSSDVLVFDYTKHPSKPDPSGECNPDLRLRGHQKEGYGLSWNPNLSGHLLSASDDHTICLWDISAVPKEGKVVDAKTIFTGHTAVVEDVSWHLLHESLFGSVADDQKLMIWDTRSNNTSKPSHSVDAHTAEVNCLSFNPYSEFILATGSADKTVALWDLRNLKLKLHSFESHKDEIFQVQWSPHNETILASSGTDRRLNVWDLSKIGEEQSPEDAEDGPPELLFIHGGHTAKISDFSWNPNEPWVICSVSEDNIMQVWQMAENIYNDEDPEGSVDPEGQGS

As to `CN1CCC1c1ccc(-c2cnc(NCc3c(F)ccc4c3CCO4)n3cc(C#N)nc23)cc1` (stereo not drawn) [Example 221], the IC50 in experiment [1] (Homo sapiens) was at most 250 nM; in experiment [2] (Homo sapiens) it was 100 to 500 nM.

Regarding `Cc1nc(N2CCOCC2)ccc1-c1cnc(NCc2c(F)ccc3c2CCO3)n2cc(C#N)nc12` [Example 56], the IC50 is at most 250 nM in experiment [1] (Homo sapiens) and 100 to 500 nM in experiment [2] (Homo sapiens).

As for `N#Cc1cn2c(NCc3c(F)ccc4c3CCO4)ncc(-c3cnn(CC4CCOC4)c3)c2n1` (stereo not drawn) [compound 154], the IC50 in experiment [1] lay within 250 to 500 nM; in experiment [2], 100 to 500 nM.

As for `N#Cc1cn2c(NCc3c(F)ccc4c3CCO4)ncc(-c3cnc(C4CC4)cn3)c2n1` [Example 70], the IC50 is at most 250 nM in experiment [1] (Homo sapiens), below 100 nM in experiment [2] (Homo sapiens) and below 100 nM in experiment [3].
